According to patent US20080269161A1, “Compositions and Methods Relating to Mitochondrial Hyperpolarization in Neurological Disease” (priority 2005, published 2008):
“Also recorded” adds a separate entry of the source.

What was measured:
[1] = target: T1, human adenosine receptor A2B (Homo sapiens, UniProt P29275); conditions: recombinant human receptor; cited from earlier work
T1 sequence (P29275 1-332): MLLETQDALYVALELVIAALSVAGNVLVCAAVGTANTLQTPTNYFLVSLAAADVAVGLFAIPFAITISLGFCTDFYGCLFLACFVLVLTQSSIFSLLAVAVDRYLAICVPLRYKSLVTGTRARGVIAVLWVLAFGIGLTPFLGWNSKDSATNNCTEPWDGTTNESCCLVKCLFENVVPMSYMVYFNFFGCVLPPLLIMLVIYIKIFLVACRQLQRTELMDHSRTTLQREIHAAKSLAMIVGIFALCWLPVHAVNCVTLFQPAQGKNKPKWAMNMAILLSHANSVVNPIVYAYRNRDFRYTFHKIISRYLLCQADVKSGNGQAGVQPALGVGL

[2] = target: human adenosine receptor A2A (Homo sapiens, UniProt P29274); conditions: recombinant human receptor; cited from earlier work
[3] = tested on: Tat-stimulated TNF release in monocytes; experiment: Tat-stimulated TNF release by primary monocytes (ELISA); type: cell-based, human; conditions: 4 h
Protocol: Human primary monocytes were treated with Tat (100 nM) in the presence or absence of the A2AR agonist, CGS21680 (CGS; 1 μM) or the A2AR antagonist, ZM241385 (100 nM) for 4 h. TNF levels in culture supernatants were then quantitated by ELISA. Data represent mean+SEM of three replicates, from a single representative experiment
Primary monocytes were seeded in separate triplicate wells, and exposed independently to LPS (100 ng/ml), vehicle (NT) or Tat (100 nM) in the presence or absence of the A2AR agonist, CGS21680 (1 μM). After 4 h, cells were harvested. (A) TNF was measured in cell supernatants by ELISA Mean data values (±S.D.) are shown for the triplicate wells. (B) The corresponding cells from each well in panel A were lysed and subjected to qRTPCR analysis. Each cDNA sample was analyzed in quadruplicate. Assay results are presented as fold induction of gene expression, compared to untreated cells, after normalization to levels of GAPDH. Data represent mean±SD for each individual experimental replicate/well.
Human primary monocytes were treated with Tat (100 nM) in the presence or absence of the A2AR agonist, ATL313 (1-4 nM) or the A2AR antagonist, ATL455 (1-4 nM) for 4 h. TNF levels in culture supernatants were then quantitated by ELISA. […]
Human primary monocytes were treated with Tat (100 nM) in the presence or absence of the A2AR agonist, ATL313 (at the indicated doses) for 4 h. TNF levels in culture supernatants were then quantitated by ELISA. […]
(6) Primary monocytes. […] Results are compared for both populations, as well as purity (as assessed by immunophenotyping using CD14, CD68 and MHC class II).
The effect of an A2AR agonist on TNF release by primary human monocytes was also determined. Monocytes were stimulated with HIV-1 Tat, in the presence or absence of the A2AR agonist CGS21680 or the A2AR antagonist ZM251385 and TNF release was then measured in cell culture supernatants using an ELISA assay.
Quantitative real-time PCR analysis was used to measure TNF message levels in Tat-treated monocytes. […]

[4] = target: T2, human adenosine receptor A3 (Homo sapiens, UniProt P0DMS8); conditions: recombinant human receptor; cited from earlier work
T2 sequence (P0DMS8 1-318): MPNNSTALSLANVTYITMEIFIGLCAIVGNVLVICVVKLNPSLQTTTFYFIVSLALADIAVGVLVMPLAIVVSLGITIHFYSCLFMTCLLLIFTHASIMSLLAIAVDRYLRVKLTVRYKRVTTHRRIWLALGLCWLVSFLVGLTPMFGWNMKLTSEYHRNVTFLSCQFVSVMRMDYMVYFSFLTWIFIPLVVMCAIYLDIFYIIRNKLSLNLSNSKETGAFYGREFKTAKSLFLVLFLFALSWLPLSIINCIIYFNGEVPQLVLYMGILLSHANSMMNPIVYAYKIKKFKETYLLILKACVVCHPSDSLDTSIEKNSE

[5] = tested on: rat cerebellar granule neurons (CGNs); experiment: Tat-induced apoptosis of cerebellar granule neurons (TUNEL); type: cell-based; conditions: Tat 500 nM, 48 h
Protocol: (§1) CGNs were exposed to HIV-1 Tat (Tat, 500 nM), or vehicle alone (NT), in the presence or absence of the A2A antagonist, ZM241385. After 48 h, cultures were analyzed for the percentage of apoptotic cells using the TUNEL assay. Data represent mean±SEM for one experiment that was performed in triplicate; data are representative of two independent experiments.
as §1, with “(No Tat),” for “(NT),”, “A2AR antagonists, ATL455 and ZM241385, or the A2AR agonists ATL313 and CGS21680.” for “A2A antagonist, ZM241385.”
(1) Primary rat cerebellar granule neurons (CGNs). CGNs represent a highly homogenous population of primary neurons which are susceptible to Tat and PAF-mediated cell killing and have been used in many of previous studies. CGN cells are isolated according to published procedures [Maggirwar, S. B., et al. 1999. J Neurochem 73:578-86] [Tong, N., et al. 2001. Eur J Neurosci 13:1913-22].
78(4): p. […] 22(6): p. 1102-6].
Primary rat cerebellar granule neurons (CGNs) were exposed to a neurotoxic concentration of HIV-1 Tat, in the presence or absence of an A2AR antagonist (ZM241385). […] It is important to note that CGNs express adenosine A2A receptors [Vacas, J., et al. 2003. Brain Res 992:272-280].
Primary cultures of rat cerebellar granule neurons (CGNs) were exposed to HIV-Tat ([…]) alone or together with increasing doses of the A2AR antagonist ATL-455 or A2A agonists ATL313 or CGS21680. Cells are treated with the test compounds for defined time intervals of up to 48 hours (1, 4, 8, 24, and 48 hours).

[6] = target: T3, human adenosine receptor A1 (Homo sapiens, UniProt P30542); conditions: recombinant human receptor; cited from earlier work
T3 sequence (P30542 1-326): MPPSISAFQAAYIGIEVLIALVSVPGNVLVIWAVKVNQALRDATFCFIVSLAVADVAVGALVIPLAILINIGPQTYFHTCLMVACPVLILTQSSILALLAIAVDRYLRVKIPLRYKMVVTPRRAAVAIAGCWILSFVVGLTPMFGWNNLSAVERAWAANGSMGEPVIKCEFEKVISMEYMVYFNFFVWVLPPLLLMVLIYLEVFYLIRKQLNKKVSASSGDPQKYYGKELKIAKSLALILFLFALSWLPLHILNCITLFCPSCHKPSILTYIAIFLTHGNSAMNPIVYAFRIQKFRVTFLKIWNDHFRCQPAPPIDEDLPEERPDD

Chain of human adenosine receptor A2A (P29274 whole entry): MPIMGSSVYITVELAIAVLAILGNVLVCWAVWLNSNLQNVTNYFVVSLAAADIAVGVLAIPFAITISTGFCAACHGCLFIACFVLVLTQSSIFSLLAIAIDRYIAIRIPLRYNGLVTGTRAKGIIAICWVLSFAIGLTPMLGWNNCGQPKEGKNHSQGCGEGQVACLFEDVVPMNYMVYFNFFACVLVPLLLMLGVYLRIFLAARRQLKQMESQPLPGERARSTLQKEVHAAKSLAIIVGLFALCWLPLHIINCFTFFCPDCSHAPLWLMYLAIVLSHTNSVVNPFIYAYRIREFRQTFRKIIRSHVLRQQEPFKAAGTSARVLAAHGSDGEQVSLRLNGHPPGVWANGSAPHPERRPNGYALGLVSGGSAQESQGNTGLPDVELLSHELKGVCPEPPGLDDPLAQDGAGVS

COC(=O)N1CCC(CC#Cc2nc(N)c3ncn(C4OC(C(=O)NC5CC5)C(O)C4O)c3n2)CC1 (stereo not shown) [ATL313, 4-{3-[6-amino-9-(5-cyclopropylcarbamoyl-3,4-dihydroxytetrahydrofuran-2-yl)-9H-purin-2-yl]prop-2-ynyl}piperidine-1-carboxylic acid methyl ester]
Ki [1]: > 1000 nM
Ki [2]: 0.6 nM
IC50 ([3]; Homo sapiens, Monocyte, read-out: approximate IC50 for inhibitory effect on Tat-stimulated TNF release in monocytes): < 1 nM
effect on Tat-induced monocyte activation (TNF release) ([3]; Tat 100 nM, CGS21680 1 μM, ATL313, ATL455 1-4 nM): very similar results; also recorded: opposed
Ki [4]: 320 nM
effect on Tat-induced neuronal apoptosis [5]: did not result in an increase in cell death
Ki [6]: 52 nM
